Drawing on patent US9062056B2, “Aza-benzimidazolone Chymase inhibitors” (Boehringer Ingelheim International GmbH, priority 2008, dated 2015), this text covers IC50 for 16 compounds.

Broadly, the pIC50 is the IC50 on a negative log10 scale, so that one unit is a factor of ten. Read a low pIC50 as a high IC50.

pIC50: −log10 of the molar value.

The assay concerns the target T1, Chymase (Homo sapiens, UniProt P23946).
T1 sequence (P23946 22-247): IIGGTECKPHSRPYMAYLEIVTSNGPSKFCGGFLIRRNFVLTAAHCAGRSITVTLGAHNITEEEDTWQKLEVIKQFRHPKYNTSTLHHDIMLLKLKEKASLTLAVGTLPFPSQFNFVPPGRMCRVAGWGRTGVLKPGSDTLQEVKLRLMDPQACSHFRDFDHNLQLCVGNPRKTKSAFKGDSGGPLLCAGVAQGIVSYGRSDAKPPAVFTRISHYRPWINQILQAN
The assay is described as follows: In vitro assay for inhibition of Chymase (rhodamine 110 peptide substrate, fluorescence). The assay is classed as biochemical. The settings on record: 500 pM chymase, 100 nM substrate, 100 μM TCEP, 1% DMSO, 28° C., 1 hour. The protocol:
IN VITRO ASSAY FOR INHIBITION OF CHYMASE
Chymase assays were performed in a total volume of 15 μL in Corning black opaque 384-well microtiter plates with a non-binding surface (Corning, N.Y.). The assay buffer was comprised of 20 mM Tris HCl pH 8.0, 50 mM NaCl, 0.01% CHAPS. The test compounds were serially diluted 3-fold with neat DMSO in a 96-well polypropylene plate from a 10 mM DMSO stock to give the 10 point dose response curve. 3 μL of the resulting DMSO solution were transferred to a 384-well polypropylene plate in duplicate, and 37 μL of assay buffer was added. Chymase was added to the assay plate in 3 uL of assay buffer followed by 2 uL of the appropriate compound dilution using a PlateMate Plus (Matrix Technologies Corp., Hudson, N.H.). The reaction was initiated by the addition of 10 uL rhodamine 110, bis-(succinoyl-L-alanyl-L-alanyl-L-prolyl-L-phenylalanylamide) (American Peptides, Sunnyvale, Calif.) in assay buffer containing 150 μM tris(2-carboxyethyl)phosphine (TCEP, Pierce Chemical, Rockford, Ill.) using a Multidrop (Thermo Electron Corp., Waltham, Mass.). Final assay concentrations were 500 pM chymase, 100 nM substrate, 100 μM TCEP, and 1% DMSO. The plates were incubated at 28° C. and 80% humidity for 1 hour, at which time the fluorescence was read on a Viewlux 1430 Microplate Imager (Perkin Elmer Life Sciences, Boston, Mass.) with 485 nm excitation, 530 nm emission, and a fluorescein dichroic mirror. The percentage of control values were calculated relative to assay blanks containing complete reaction minus chymase and a 100% control containing assay buffer with 1% DMSO in place of compound. IC50 values were obtained by fitting the data using XLFit4 (IDBS Software).
With `Cc1cc(C)c2c(Cn3c(=O)n([C@H](CC(=O)O)c4ccc(F)cc4)c4nc(C(N)=O)ccc43)cn(C)c2c1` [(R)-3-[5-Carbamoyl-2-oxo-1-(1,4,6-trimethyl-1H-indol-3-ylmethyl)-1,2-dihydro-imidazo[4,5-b]pyridin-3-yl]-3-(4-fluoro-phenyl)-propionic acid], the negative logarithm of the IC50 (pIC50) was 9.40. As for `Cc1cccc2c1c(Cn1c(=O)n([C@H](CC(=O)O)c3ccc(F)cc3)c3nc(C#N)ccc31)cn2C` [(R)-3-[5-Cyano-1-(1,4-dimethyl-1H-indol-3-ylmethyl)-2-oxo-1,2-dihydro-imidazo[4,5-b]pyridin-3-yl]-3-(4-fluoro-phenyl)-propionic acid], the pIC50 was 9.61. The compound `Cc1cccc2c1c(Cn1c(=O)n([C@H](CC(=O)O)c3ccccc3)c3nc(C#N)ccc31)cn2C` [(R)-3-[5-Cyano-1-(1,4-dimethyl-1H-indol-3-ylmethyl)-2-oxo-1,2-dihydro-imidazo[4,5-b]pyridin-3-yl]-3-phenyl-propionic acid] had a negative-log IC50 (pIC50) of 8.82. In turn, `Cc1cc(C)c2c(Cn3c(=O)n([C@H](CC(=O)O)c4ccc(F)cc4)c4nc(C#N)ccc43)cn(C)c2c1` [(R)-3-[5-Cyano-2-oxo-1-(1,4,6-trimethyl-1H-indol-3-ylmethyl)-1,2-dihydro-imidazo[4,5-b]pyridin-3-yl]-3-(4-fluoro-phenyl)-propionic acid] had a pIC50 of 9.64.

In the case of `Cc1cc(C)c2c(Cn3c(=O)n([C@H](CC(=O)O)c4ccccc4)c4nc(C#N)ccc43)cn(C)c2c1` [(R)-3-[5-Cyano-2-oxo-1-(1,4,6-trimethyl-1H-indol-3-ylmethyl)-1,2-dihydro-imidazo[4,5-b]pyridin-3-yl]-3-phenyl-propionic acid], the negative-log IC50 (pIC50) was 9.22. In turn, `COc1ccc2c(n1)n([C@H](CC(=O)O)c1ccccc1)c(=O)n2Cc1cn(C)c2cc(C)cc(C)c12` [(R)-3-[5-Methoxy-2-oxo-1-(1,4,6-trimethyl-1H-indol-3-ylmethyl)-1,2-dihydro-imidazo[4,5-b]pyridin-3-yl]-3-phenyl-propionic acid] showed a negative-log IC50 (pIC50) of 9.22.

With `Cc1cccc2c1c(Cn1c(=O)n([C@H](CC(=O)O)c3ccccc3)c3nc(C(C)C)ncc31)cn2C` [(R)-3-[7-(1,4-Dimethyl-1H-indol-3-ylmethyl)-2-isopropyl-8-oxo-7,8-dihydro-purin-9-yl]-3-phenyl-propionic acid], the pIC50 was 7.90. Next, `CCC[C@@H](CC(=O)O)n1c(=O)n(Cc2cn(C)c3cccc(C)c23)c2cccnc21` [(S)-3-[1-(1,4-Dimethyl-1H-indol-3-ylmethyl)-2-oxo-1,2-dihydro-imidazo[4,5-b]pyridin-3-yl]-hexanoic acid]: 8.31. In turn, `CCC[C@@H](CC(=O)O)n1c(=O)n(Cc2cn(C)c3cccc(C)c23)c2ccc(C)nc21` [(S)-3-[1-(1,4-Dimethyl-1H-indol-3-ylmethyl)-5-methyl-2-oxo-1,2-dihydro-imidazo[4,5-b]pyridin-3-yl]-hexanoic acid] had a pIC50 of 8.35.

In the case of `CCC[C@@H](CC(=O)O)n1c(=O)n(Cc2cn(C)c3cccc(C)c23)c2cc(C)cnc21` [(S)-3-[1-(1,4-Dimethyl-1H-indol-3-ylmethyl)-6-methyl-2-oxo-1,2-dihydro-imidazo[4,5-b]pyridin-3-yl]-hexanoic acid], the pIC50 was 8.46. `CCC[C@@H](CC(=O)O)n1c(=O)n(Cc2nsc3cc(C)cc(C)c23)c2ccc(C)nc21` [(S)-3-[1-(4,6-Dimethyl-1,2-benzisothiazol-3-ylmethyl)-5-methyl-2-oxo-1,2-dihydro-imidazo[4,5-b]pyridin-3-yl]-hexanoic acid] gave a negative-log IC50 (pIC50) of 8.47. To `CCC[C@@H](CC(=O)O)n1c(=O)n(Cc2cn(C)c3cccc(C)c23)c2ncccc21` [(S)-3-[3-(1,4-Dimethyl-1H-indol-3-ylmethyl)-2-oxo-2,3-dihydro-imidazo[4,5-b]pyridin-1-yl]-hexanoic acid] belongs 8.05. The compound `CCC[C@@H](CC(=O)O)n1c(=O)n(Cc2cn(C)c3cccc(C)c23)c2cnccc21` [(S)-3-[3-(1,4-Dimethyl-1H-indol-3-ylmethyl)-2-oxo-2,3-dihydro-imidazo[4,5-c]pyridin-1-yl]-hexanoic acid] showed a negative logarithm of the IC50 (pIC50) of 7.72. Compared with the last compound, the pIC50 is 0.33 log units lower.

In the case of `CCC[C@@H](CC(=O)O)n1c(=O)n(Cc2cn(C)c3cc(C)cc(C)c23)c2ccc(C)nc21` [(S)-3-[5-Methyl-2-oxo-1-(1,4,6-trimethyl-1H-indol-3-ylmethyl)-1,2-dihydro-imidazo[4,5-b]pyridin-3-yl]-hexanoic acid], the negative-log IC50 (pIC50) is 9.09.

In turn, `CCC[C@@H](CC(=O)NS(=O)(=O)CC)n1c(=O)n(Cc2cn(C)c3cccc(C)c23)c2cccnc21` [Ethanesulfonic acid {(S)-3-[1-(1,4-dimethyl-1H-indol-3-ylmethyl)-2-oxo-1,2-dihydro-imidazo[4,5-b]pyridin-3-yl]-hexanoyl}-amide] had a negative-log IC50 (pIC50) of 8.13. Compared with the last compound, the pIC50 is 0.96 log units lower. On to `CCC[C@@H](CC(=O)NS(C)(=O)=O)n1c(=O)n(Cc2cn(C)c3cccc(C)c23)c2cccnc21` [N-{(S)-3-[1-(1,4-Dimethyl-1H-indol-3-ylmethyl)-2-oxo-1,2-dihydro-imidazo[4,5-b]pyridin-3-yl]-hexanoyl}-methanesulfonamide], for which the pIC50 was 7.93. Compared with the last compound, the pIC50 is 0.20 log units lower.
